The values that follow come from patent US12508300B2, “Acylated GLP-1 derivative” (Sciwind Biosciences Co., Ltd., priority 2019, dated 2025).

The assay relates to CD-1 mice. It counts as in vivo. Particulars: mouse, in vivo, sc, 0.15 mg/kg. Here is the method:
Twenty-eight healthy female CD-1 mice aged 4-6 weeks are selected and divided into 4 groups, and they are injected subcutaneously with M4, M5, M7 and M0 at a dose of 0.15 mg/kg body weight.

Molecules are shown by their SMILES. Read-outs that look alike come from different tables or passages of the source. *1 amine or outer side, *2 acyl side, *3 side chain or, on linkers, in order; H or OH if unused. Where a SMILES comes first, the peptide text is derived from it. Side-chain parts run from the residue outwards. The star is where a group is joined. C18 diacid = O=C(O)CCCCCCCCCCCCCCCCC(=O)*; γGlu = O=C(O)[C@H](CCC(=O)[*:2])N[*:1]; AEEA = NCCOCCOCC(=O)O

As to `CC[C@H](C)[C@H](NC(=O)[C@H](Cc1ccccc1)NC(=O)[C@H](CCC(=O)O)NC(=O)[C@H](CCCNC(=N)N)NC(=O)[C@H](C)NC(=O)[C@H](C)NC(=O)[C@H](CCCCNC(=O)COCCOCCNC(=O)COCCOCCNC(=O)CC[C@H](NC(=O)CCCCCCCCCCCCCCCCC(=O)O)C(=O)O)NC(=O)[C@H](CCC(=O)O)NC(=O)[C@H](CCC(=O)O)NC(=O)[C@H](CC(C)C)NC(=O)[C@H](Cc1ccc(O)cc1)NC(=O)[C@H](CO)NC(=O)[C@H](CO)NC(=O)[C@@H](NC(=O)[C@H](CC(=O)O)NC(=O)[C@H](CO)NC(=O)[C@@H](NC(=O)[C@H](Cc1ccccc1)NC(=O)[C@@H](NC(=O)CNC(=O)[C@H](CCC(=O)O)NC(=O)[C@@H](NC(=O)[C@@H](N)Cc1c[nH]cn1)C(C)C)[C@@H](C)O)[C@@H](C)O)C(C)C)C(=O)N[C@@H](C)C(=O)N[C@@H](Cc1c[nH]c2ccccc12)C(=O)N[C@@H](CC(C)C)C(=O)N[C@H](C(=O)N[C@@H](CCCNC(=N)N)C(=O)NCC(=O)N[C@@H](CCCNC(=N)N)C(=O)NCC(=O)O)C(C)C` [M2, N-ε^23-[2-(2-[2-(2-[2-(2-[4-(17-carboxyheptadecanoylamino)-4(s)-carboxybutyrylamino]ethoxy)ethoxy]acetylamino)ethoxy]ethoxy)acetyl](Val^8Glu^22Lys^23Arg^26,34-GLP-1 (7-37)) peptide] (H-HVEGTFTSDVSSYLEEK([AEEA-AEEA-γGlu-C18 diacid])AAREFIAWLVRGRG-OH; N-terminus and C-terminus assumed), the “Inhibition rate (blood glucose)” value by setting is: (6 h) 34.29%; (30 h) 29.51%; (54 h) 27.23%; (78 h) 21.97%; (102 h) 10.15%.
